Test results as given in article PMC8402032, “Unsymmetric Cisplatin-Based Pt(IV) Conjugates Containing a PARP-1 Inhibitor Pharmacophore Tested on Malignant Pleural Mesothelioma Cell Lines” (Molecules, 2021).
Read-outs that look alike come from different tables or passages of the source.

Tests used:
[1] = target: T1, PARP-1 (Homo sapiens, UniProt P09874); assay: Western blot of poly(ADP-ribose) (PAR) and PARP-1 in MSTO-211H cells; type: cell-based; conditions: 5 µM, 72 h
T1 construct: endogenous in cells; host or cells: MSTO-211H cells
Protocol: The effect of the most promising complex 6 on PARP-1 activity was further evaluated. MSTO-211H cells were treated with equimolar concentrations (5 µM) of 6, CDDP, and 3-ABA for 72 h. The two last compounds were used either alone or in combination in a 1:1 molar ratio. Western blot analysis evaluated the expression of poly(ADP-ribose) (PAR), which is the product of PARP-1 activity (Figure 4A).
For protein analysis, cells were extracted with 1% NP-40 lysis buffer (50 mM Tris-HCl pH 8.5 containing 1% NP-40, 150 mM NaCl, 10 mM EDTA, 10 mM NaF, 10 mM Na4P2O7, and 0.4 mM Na3VO4) with freshly added protease inhibitors (10 μg mL^−1 leupeptin, 4 μg mL^−1 pepstatin, and 0.1 U mL^−1 aprotinin). Lysates were centrifuged at 13,000× g for 10 min at 4 °C and the supernatants were collected and assayed for protein concentration with the Bradford assay method (Bio-Rad). Proteins were separated by SDS-PAGE (sodium dodecyl sulfate polyacrylamide gel electrophoresis) under reducing conditions. Following SDS-PAGE, proteins were transferred to nitrocellulose, reacted with specific antibodies, and then detected with peroxidase-conjugate secondary antibodies and chemioluminescent ECL reagent. Digital images were taken with the Bio-Rad ChemiDocTM Touch Imaging System and quantified using Bio-Rad Image Lab 5.2.1.
Figure 4 (A) Representative Western blot showing poly(ADP-ribose) (PAR) and PARP-1 expression following 72 h MSTO-211H cell treatment with diluent (Ctrl) or 5 µM concentrations of cisplatin (CDDP), 6, CDDP + 3-ABA combination (1:1 ratio), and 3-ABA alone. HSC70 protein was used as loading control. (B) Immunocytochemistry was used to capture representative γH2AX focus images following 72 h MSTO-211H cell treatment with diluent (Ctrl) or 5 µM of complex 6.

[2] = test system: MSTO-211H (biphasic phenotype) malignant pleural mesothelioma cells; assay: Cell viability assay (Trypan blue dye exclusion), MSTO-211H; type: cell-based, human
Protocol: (§1) Complexes 6–9 were tested on a panel of human MPM cell lines together with CDDP and SAA1, added for comparison (Table 1). The half-maximal inhibitory concentration, IC50, was determined on MSTO-211H (biphasic phenotype), REN (epithelioid), BR95 (epithelioid), and MM98 (sarcomatoid) cancer cell lines to identify the most promising Pt(IV) conjugate to be further investigated. To determine the number of viable cells, the use of the dye exclusion assay was preferred to the colorimetric assay because of the heterogeneity in the energy metabolism between the different MPM cell lines. This may justify minor differences with respect to the previously published IC50 for CDDP [40].
(§2) Cells were seeded at a density of 10 × 10^4 cells per well in 6-well plates in RPMI medium supplemented with 10% fetal bovine serum (FBS), 100 μg mL^−1 streptomycin, and 10 μg mL^−1 penicillin and incubated overnight at 37 °C in a humidified environment containing 5% CO2 to allow adherence. Cisplatin was dissolved in 0.9% w/v aqueous NaCl brought to pH = 3 with HCl (final stock concentration 1 mM). The Pt(IV) complexes were dissolved in DMSO (final stock concentration 5 mM); the resulting solutions were microfiltered (0.45 μm) and their Pt content was checked by ICP-MS (see Section 3.5.2). These mother solutions were diluted in complete medium to the required concentration range.
(§3) Following 72 h of treatment with the diluent of the compound (Ctrl) or different doses of the Pt compounds, cells were trypsinized and stained with Trypan blue. The number of cells considered viable (unstained cells) was counted in a Bürker haemocytometer within 5 min after staining.

[3] = Reduction with ascorbic acid followed by RP-HPLC; type: physicochemical; conditions: ascorbic acid 10 mM, HEPES 50 mM pH 7.4, 37 °C, cosolvent DMF or MeOH
Protocol: To verify the activation by reduction mechanism, complexes 6–9 were challenged with the model bioreductant ascorbic acid (AA, 10 mM in water) in HEPES buffer (HEPES = 4-(2-hydroxyethyl)-1-piperazineethanesulfonic acid, 50 mM, pH = 7.4) at 37 °C. The reaction was monitored by following the RP-HPLC peaks over 24 h. The different solubility and retention times required different experimental conditions for the different compounds (cosolvent DMF or MeOH was necessary to maintain the Pt compounds in solution, >5% v/v). For these reasons, complete reduction for 8 and 9 was observed after 8 h, whereas for 6 and 7, the >85% peak area disappeared after 24 h only. […] Complexes 6–9, having very similar coordination skeletons, can be expected to behave in the same way.
The reduction of complexes with ascorbic acid was followed by monitoring of the reduction of the area of their chromatographic peaks via RP-HPLC over 24 h at 37 °C. The Pt compounds were dissolved in methanol or DMF (up to 20 mM) and diluted with different quantities of 50 mM 4-(2-hydroxyethyl)piperazine-1-ethanesulfonic acid (HEPES) buffer (pH = […]) containing 10 mM ascorbic acid. The mixtures were microfiltered to eliminate the precipitated complex. The chromatographic conditions were similar to those for the determination of lipophilicity (see Section 3.4), with different percentages of methanol depending on the complex.

[4] = Lipophilicity by RP-HPLC (log k′); type: physicochemical; conditions: RP-HPLC C18, 15 mM formic acid/CH3OH 30/70
Source text: Since it has been reported that Pt(IV) complexes enter cells by passive diffusion only, with a few exceptions, the evaluation of lipophilicity is key because it is related to the ability of a molecule to passively cross cellular membranes. RP-HPLC techniques are often used to measure the lipophilicity of a compound, since the retention is due to partitioning between the C18 chains of the stationary phase (representing the cellular membrane) and the aqueous eluent (representing the water inside and outside cells). For this purpose, the retention times (tR) of the complexes were transformed as log k′, where k′ = (tR − t0)/t0) and t0 is the column dead-time (Table 1).
RP-HPLC was used to evaluate the capacity factors of the compounds as reported elsewhere. Briefly, a chromatogram for each Pt complex (0.5 mM) was run on a C18 column Phenosphere-NEXT (5-μm, 250 × 4.6 mm ID) with an eluant composition of 15 mM formic acid/CH3OH 30/70 and a flow rate of 0.5 mL min^−1. The corresponding retention time tR was used to calculate log k′, where k′ = (tR − t0)/t0. The dead time of the column t0 was the tR of KCl, added as unretained internal reference.

[5] = test system: MM98 (sarcomatoid) malignant pleural mesothelioma cells; assay: Cell viability assay (Trypan blue dye exclusion), MM98; type: cell-based, human; conditions: 72 h treatment; for IC50: mean ± sd
Protocol: as §1, §2, §3

[6] = test system: BR95 (epithelioid) malignant pleural mesothelioma cells; assay: Cell viability assay (Trypan blue dye exclusion), BR95; type: cell-based, human; conditions: 72 h treatment; for IC50: mean ± sd
Protocol: as §1, §2, §3

[7] = test system: MSTO-211H cells; assay: Cell uptake (intracellular Pt by ICP-MS); type: cell-based, human; conditions: 10 μM, 4 h treatment, mean ± sd
Protocol: Cellular accumulation of compounds 6–9 was evaluated by means of the intracellular Pt uptake after 4 h treatment of MSTO-211H cells and expressed as ng Pt per 10^6 cells (Table 1). As expected, the Fmoc protection of 6 and 7 enhances the lipophilicity of the complexes, facilitating their cell uptake. Also the elongation of the organic linker from -(CH2)2- to -(CH2)6- increases (to a minor extent) the lipophilicity in 7 and 9 with respect to 6 and 8.
MSTO-211H cells were seeded in […] Petri dishes and challenged with the compounds and mixtures under investigations (10 μM) in complete medium. At the end of the exposure, cells were washed three times with phosphate buffered saline (PBS) and detached from the Petri dishes using 0.05% Trypsin 1X + 2% EDTA (HyClone, Thermo Fisher). The cells were harvested in fresh complete medium and an automatic cell counting device (Countess®, Life Technologies, Carlsbad, CA, USA) was used to measure the number and the mean diameter from every cell count. The harvested cells were transferred into a borosilicate glass tube and centrifuged at 1100× g rpm for 5 min at room temperature. The supernatant was carefully removed by aspiration, but about 200 μL of the supernatant was left in order to limit the cellular loss. Finally, the cellular pellets were stored at −80 °C. Platinum content determination was performed by ICP-MS (Thermo Optek X Series 2). Complete mineralization was obtained by the addition of 70% w/w HNO3 to each sample (after defrosting), followed by incubation for 1 h at 60 °C in an ultrasonic bath. Before the ICP-MS measurement, the HNO3 was diluted to a final 1% concentration. The instrumental settings were optimized to yield maximum sensitivity for platinum, and the most abundant isotopes of Pt (m/z = 195) and In (m/z = 115, used as internal standard) were quantified. The level of Pt found in cells after the treatment was normalized to the cell number and expressed as ng of Pt per 10^6 cells.

[8] = test system: REN (epithelioid) malignant pleural mesothelioma cells; assay: Cell viability assay (Trypan blue dye exclusion), REN; type: cell-based, human; conditions: 72 h treatment; for IC50: mean ± sd
Protocol: as §1, §2, §3

[9] = 72 h treatment, mean ± sd, read-out: IC50 MSTO-211H

T1 sequence (P09874 whole entry): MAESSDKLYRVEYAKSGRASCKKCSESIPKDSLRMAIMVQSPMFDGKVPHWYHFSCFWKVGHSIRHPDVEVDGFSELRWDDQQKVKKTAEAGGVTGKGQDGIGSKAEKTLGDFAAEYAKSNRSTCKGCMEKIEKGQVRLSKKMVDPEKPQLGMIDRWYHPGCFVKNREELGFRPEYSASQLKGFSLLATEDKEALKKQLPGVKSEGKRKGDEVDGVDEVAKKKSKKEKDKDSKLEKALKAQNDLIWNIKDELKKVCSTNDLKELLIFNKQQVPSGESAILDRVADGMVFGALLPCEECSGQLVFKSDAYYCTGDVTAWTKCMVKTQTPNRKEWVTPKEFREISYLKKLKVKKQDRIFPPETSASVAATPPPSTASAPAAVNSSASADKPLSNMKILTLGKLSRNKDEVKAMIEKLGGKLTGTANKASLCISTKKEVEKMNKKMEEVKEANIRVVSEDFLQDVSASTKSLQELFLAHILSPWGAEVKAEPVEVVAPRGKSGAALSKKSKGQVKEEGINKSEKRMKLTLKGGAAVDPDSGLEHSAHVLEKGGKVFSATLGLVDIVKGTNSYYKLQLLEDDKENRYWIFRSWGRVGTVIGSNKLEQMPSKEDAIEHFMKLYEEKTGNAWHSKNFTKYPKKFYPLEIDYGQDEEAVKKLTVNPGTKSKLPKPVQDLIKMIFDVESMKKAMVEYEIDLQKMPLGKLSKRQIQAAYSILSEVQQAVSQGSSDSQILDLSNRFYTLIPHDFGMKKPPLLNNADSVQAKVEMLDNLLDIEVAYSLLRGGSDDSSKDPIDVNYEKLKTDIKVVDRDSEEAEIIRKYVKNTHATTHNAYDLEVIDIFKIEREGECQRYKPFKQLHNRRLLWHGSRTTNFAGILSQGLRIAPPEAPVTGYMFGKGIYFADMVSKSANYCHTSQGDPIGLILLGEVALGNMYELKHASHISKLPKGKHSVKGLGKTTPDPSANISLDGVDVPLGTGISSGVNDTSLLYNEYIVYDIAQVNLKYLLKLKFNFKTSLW

| IC50 ([2]; Homo sapiens, MSTO-211H, read-out: IC50 on MSTO-211H) [µM] | time to complete reduction [3] [h] | Log k′ [4] | IC50 [5] [µM] | IC50 [6] [µM] | IC50 [8] [µM] | IC50 [2, 9] [µM] | peak area disappeared after 24 h ([3]; 24 h) [%] | Structure (SMILES) | PARP-1 parylation (PAR expression) [1] | ratio IC50 (cisplatin)/IC50 (Pt(IV) complex), BR95 [6] | Pt Uptake [7] [ng Pt per 10^6 Cells] | ratio IC50 (cisplatin)/IC50 (Pt(IV) complex), REN [8] | ratio IC50 (cisplatin)/IC50 (Pt(IV) complex), MSTO-211H ([2]; 72 h treatment) | ratio IC50 (cisplatin)/IC50 (Pt(IV) complex), MM98 [5] | PARP-1 cleavage [1] |
| --- | --- | --- | --- | --- | --- | --- | --- | --- | --- | --- | --- | --- | --- | --- | --- |
| 5412 ± 28 | – | – | – | – | – | – | – | NC(=O)c1cccc(N)c1 [Compound 3-ABA, 3-aminobenzamide, reference compound] | No self-parylation of PARP-1 | – | – | – | – | – | – |
| – | 8 | 0.34 | 44.1 ± 3.5 | 39.7 ± 2.7 | 38.9 ± 2.2 | 54.9 ± 3.1 | – | CC(=O)[O][Pt]([NH2])([NH2])([Cl])([Cl])[O]C(=O)CCCCCCNC(=O)c1cccc(N)c1 [Compound 9, (OC-6-44)-Acetato-[7-(3-aminobenzamido)-heptanoato]-diammine-dichlorido-platinum(IV)] | – | 0.054 | 3.12 ± 0.78 | 0.079 | 0.021 | – | – |
| – | 8 | 0.25 | 58.4 ± 2.7 | 56.8 ± 4.3 | 46.9 ± 3.2 | 28.9 ± 2.9 | – | CC(=O)[O][Pt]([NH2])([NH2])([Cl])([Cl])[O]C(=O)CCNC(=O)c1cccc(N)c1 [Compound 8, (OC-6-44)-Acetato[3-(3-aminobenzamido)-propanoato]-diammine-dichlorido-platinum(IV)] | – | 0.038 | 2.50 ± 1.16 | 0.065 | 0.039 | 0.030 | – |
| – | – | 5.84 | 0.45 ± 0.08 | 2.19 ± 0.13 | 2.22 ± 0.08 | 1.48 ± 0.02 | > 85 | CC(=O)[O][Pt]([NH2])([NH2])([Cl])([Cl])[O]C(=O)CCCCCCNC(=O)c1cccc(NC(=O)OCC2c3ccccc3-c3ccccc32)c1 [Compound 7, (OC-6-44)-Acetato-[7-(3-(fmoc-amino)-benzamido)-heptanoato]-diammine-dichlorido-platinum(IV)] | – | 0.98 | 10.86 ± 1.17 | 1.4 | 0.77 | 3.9 | – |

| Structure (SMILES) | IC50 ([2]; Homo sapiens, MSTO-211H, read-out: IC50 on MSTO-211H) [µM] | time to complete reduction [3] [h] | Log k′ [4] | IC50 [5] [µM] | IC50 [6] [µM] | IC50 [8] [µM] | IC50 [2, 9] [µM] | peak area disappeared after 24 h ([3]; 24 h) [%] | PARP-1 parylation (PAR expression) [1] | ratio IC50 (cisplatin)/IC50 (Pt(IV) complex), BR95 [6] | Pt Uptake [7] [ng Pt per 10^6 Cells] | ratio IC50 (cisplatin)/IC50 (Pt(IV) complex), REN [8] | ratio IC50 (cisplatin)/IC50 (Pt(IV) complex), MSTO-211H ([2]; 72 h treatment) | ratio IC50 (cisplatin)/IC50 (Pt(IV) complex), MM98 [5] | PARP-1 cleavage [1] |
| --- | --- | --- | --- | --- | --- | --- | --- | --- | --- | --- | --- | --- | --- | --- | --- |
| N.N.[Cl][Pt][Cl] [Cisplatin, CDDP, (SP-4-2)-diamminedichloridoplatinum(II), reference compound] | – | – | – | 1.75 ± 0.09 | 2.15 ± 0.29 | 3.07 ± 0.43 | 1.14 ± 0.07 | – | increase in PARP-1 parylation | – | 9.23 ± 0.96 | – | – | – | did not induce PARP-1 cleavage |
